Literature values in patent US20080269177A1, “PESTICIDAL COMPOSITIONS” (ECOSMART TECHNOLOGIES, INC., priority 2007, published 2008).

Tests used:
[1] = even at the lowest doses, 30 mg/kg/day
[2] = even treatments as low as 1.2%

## CCCCOCCOCCOCc1cc2c(cc1CCC)OCO2 [PBO, piperonyl butoxide]
[1]
  liver weights in chronic toxicity studies: increased liver weights
[2]
  tumour finding in animal studies: hepatocellular carcinomas
